Values quoted from earlier work, collected in patent US20130230592A1, “NOVEL OMEGA-3 AND OMEGA-6 FATTY ACID COMPOSITIONS AND USES THEREOF” (priority 2010, published 2013).

Conditions: after oral intake of 750 mg EPA

SMILES: CCC=CCC=CCC=CCC=CCC=CCCCC(=O)O [EPA, eicosa-5,8,11,14,17-pentaenoic acid]
- plasma level: about 417 μmol/L
